Experimental data as given in US9486472B2, “Methods for modulating neuronal responses” (UNIVERSITY OF BRITISH COLUMBIA CANADA, priority 2003, dated 2016).
No end group written: not given here.

Assays:
[1] = test system: hippocampal neurons; test: NMDA- or STS-induced apoptosis in cultured hippocampal neurons (Cell Death ELISA, 11-dUTP, PI staining); assay type: cell-based, rat; conditions: 100 μM NMDA + 10 μM glycine 1 h, read at 24 h; APV 50 μM; sucrose 0.4 M; myr-Dyn 100 μM; R2-CT 1 μM with Pep-1
Protocol: Hippocampi were rapidly removed from embryonic E l 8 Sprague Dawley rats and pooled prior to trituration. Hippocampal cell suspensions were plated onto poly-Dlysine coated culture dishes or glass coverslips and grown in Neurobasal™ media 10 (Invitrogen) for 14 days in vitro (DIV). The media from mature 14 DIV neurons was removed and replaced with 100 μM NMDA plus 10 μM glycine for 1 h at 37° C. prior to restoring neurons to the defined growth media. Twenty four hours after NMDA/glycine application, neurons were processed using cell death assays. NMDA-induced [Ca^2+]i responses were evoked and measured using methods described previously^26.
Apoptosis quantification: NMDA-induced apoptosis was quantified either using a Cell Death Detection Elisa Plus Kit (Roche Applied Sciences), which is based on the in vitro determination of cytoplasmic histone-associated DNA fragments, or using TdT mediated addition of biotinylated 11-dUTP to the free 3′-OH ends of DNA. Absorbance readings for both assays were carried out using a microplate reader.
Propidium Iodide (PI) staining of nuclei: After the induction of apoptosis, cells were fixed with 4% parafonnaldehyde/4% sucrose for 10 min followed by ice cold acetone for 1 min, and then stained with […] PI in Dulbecco's PBS for 30 min. Stained coverslips were mounted onto glass slides and viewed with a Leica fluorescence microscope to identify condensed nuclei. Cells with condensed nuclei were counted as apoptotic and the percentage of apoptotic cells to the total number of cells was calculated to give a semi-quantitative analysis, expressed as percentage of apoptosis.
A short peptide (YKEGYNVYGIE (SEQ ID NO. 2)) corresponding to amino acid residues from 869 to 879 of the C-terminus of GluR2 (R2-CT) was synthesized and incubated with a carrier protein (Pep-1)23 at a ratio of 1:20 in Dulbecco's modified Eagle's medium
(DMEM, Gibco) at 37° C. in a humidified atmosphere containing 5% CO2 for 30 min to allow the formation of R2-CT/Pep-1 complex. Hippocampal neurons (DW 12-14) were then overlaid with the preformed complex to reach a final R2-CT concentration of 1 μM and further incubated for 1 h before experiments commenced. Receptor Trafficking Assays

[2] = test system: CA1 neurons in hippocampal slices; test: Insulin-induced depression of AMPA receptor-mediated EPSCs, whole-cell recording of CA1 neurons; assay type: cell-based, rat; conditions: 100 μg/ml in recording pipette; insulin 0.5 μM in bath
Protocol: GST-GluR23Y and GST-GluR23A were constructed by subcloning corresponding PCR fragments into pGEX 4T-1 vectors. GST fusion proteins were expressed in DH5α E. coli and purified from bacterial lysates according to the manufacturer's protocol (Pharmacia). Products were dialyzed in PBS and concentrated using Microcon-10 columns (Amicon) for intracellular application during whole-cell recordings.
Hippocampal slices (400 μm thickness) were prepared from Sprague-Dawley rats aged 16-26 postnatal days and perfused at room temperature with artificial cerebrospinal fluid containing (mM): 126 NaCl, 26 NaHCO3, 10 glucose, 3 KCl, 1.2 KH2PO4, 1 MgCl2, and 1 CaCl2, saturated with 95% O2/5% CO2^14. The recording pipettes (4-5 MO) were filled with solution containing (mM): 135 CsCl, 10 HEPES, 5 QX-314, 4 Mg-ATP, 2 MgCl2, 0.5 EGTA, 0.2 GTP and 0.1 CaCl2, pH 7.4, 310 mOsm. Whole-cell recording of CA1 neurons and the induction of LFS-LTD were performed as previously described.^14 […]

[3] = target: pp60 c-Src (Homo sapiens, UniProt P12931); test: In vitro kinase assay with active recombinant Src; assay type: biochemical; conditions: GST fusion protein as substrate
Text: FIGS. 7 A-D. Insulin increases phosphorylation of tyrosine residues within the GluR2 carboxyl terminal (CT) region. A. In vitro tyrosine phosphorylation of the GluR2 CT. GST fusion proteins of the GluR1 CT (GST-GluR1CT), the GluR2 CT (GST-GluR2CT), residues 869-876 (YKEGYNVYG (SEQ ID NO. 4)) of the GluR2 CT (GST-GluR23Y), which contains a cluster of three tyrosine residues (Y869, Y873, and Y876) and the same amino acid stretch of the GluR2 CT with its tyrosine residues replaced by alanines (GST-GluR23A), along with the GST back bone (GST) as control, were incubated in the absence (−) or presence (+) of active recombinant pp60 c-Src. Phosphorylation products were immunoblotted using an anti-phosphotyrosine antibody (top panel). […] B. Expression levels of HA-GluR2 and HA-GluR23Y-3A (where tyrosines 869, 873 and 876 were mutated to alanines) 48 h after transient transfection into HEK293 cells were determined by a cell ELISA assay using permeabilized cells. C. HEK293 cells transiently transfected with HA-GluR1, HA-GluR2 or HA-GluR23Y-3A, along with empty vector (mock transfection) as control. Forty-eight hours later, the cells were treated with or without 0.5 μM insulin for 10 min. The lysates were then subjected to immunoprecipitation with an anti-HA antibody under denaturing conditions and immunoblotting with an anti-phosphotyrosine antibody (Top blot; IB: PY). […]

[4] = test system: rats; conditions: IV 60 min prior to test session; versus saline
Protocol: A. Rats maintained on a restricted feeding schedule were trained to lever-press for food pellets (45 mg) on a fixed-ratio 2 (FR2) schedule during 2-hour test sessions. Rats received IV injections of saline, GluR2-3A, or GluR2-3Y, in a counterbalanced order, 60 min prior to the test session. […] B. Rats were first trained to self-administer d-amphetamine (0.2 mg/infusion) via a jugular catheter on an FR2 schedule of reinforcement. Once responding in the 3 hour test sessions had stabilized, the rats were then trained on a Progressive Ratio Schedule in which successively more responses were required to obtain each successive reinforcement. […] Once stable Break point values were established, rats received IV injections of saline, GluR2-3A, or GluR2-3Y, in a counterbalanced order, 60 min prior to the test session.

[5] = test system: Sprague-Dawley rats; test: Transient focal ischemia model (MCA occlusion), TUNEL staining and neurological exam; assay type: in vivo, rat; conditions: 10 min prior to MCA occlusion; 3 nmoles/g
Protocol: The procedure was performed essentially as described previously (70). Briefly, adult male Sprague-Dawley rats between 280 and 320 g (20 h fasted weight) were anesthetized with an inhaled mixture of 4% isofluorane, in 30% oxygen balanced nitrous oxide, and maintained on 1.5% isofluorane. Bronchial secretions were minimized by administering 0.5 mg/kg of atropine intraperitoneally. […] The experimenter was blinded to the identity of the treatment groups for all surgeries and down-stream experiments. Under a dissection microscope, the common carotid artery (CCA), external carotid artery (ECA), and internal carotid artery (ICA) were exposed and dissected. […] Rectal temperature, and blood pressure measured with a tail cuff were measured before treatment, 15 min post injection, 50 min post injection, and 15 min post MCA occlusion. The plasma pH, O2, and CO2 were measured with a Rapidlab™ 348 blood gas analyzer (Bayer Diagnostics) in some animals to ensure that the gas flow rates used were appropriate and yielded reproducible blood gases. […]
At day 1 post MCAo rats were anesthetized with 1.5 mL of 25% urethane and were perfused with 100 mL of 0.9% saline followed by 120 mLs of 4% paraformaldehyde in PBS. […] The slices were scored for number of cells that stained positive for TMR-TUNEL per field of view at 10× magnification. […]

Molecule: N[C@@H](CCCP(=O)(O)O)C(=O)O [APV, reference compound]
- NMDA-induced apoptosis [1]: fully blocked

Molecule: GSTAKEGANVAG [GST-GluR23A, mutant counterpart with tyrosines replaced by alanines, control, reference compound]
- insulin-induced EPSC depression [2]: had no effect
- tyrosine phosphorylation by recombinant Src kinase [3]: abolished

Molecule: YGRKKRRQRRRAKEGANVAGIE [Tat-GluR2-3A, YGRKKRRQRRR-AKEGANVAGIE, reference compound]
- Break Point measures for drug-reward [4]: no significant differences in the Break Point measures for drug-reward
- total number of responses for food reward [4]: no significant differences in total number of responses for food reward
- mean arterial blood pressure (MABP) versus saline [5]: significantly lower mean arterial blood pressure
